Laboratory results taken from ChEMBL document CHEMBL1201862, “PubChem BioAssay data set” (2004).
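A five-concentration, 48-hour dose response in 96-well plates underlies each endpoint, interpolated linearly between surrounding concentrations. GI50 marks 50% less growth.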 Activity calls are given as the source filed them. No stated cut-off is given here; in the data, active = GI50 up to about 1.1 µM and inactive = higher.

What was measured:
Experiment in all cases: NCI anticancer screen, dose series, 48 h
A549 = system: A549
LOX IMVI = system: LOX IMVI
HOP-92 = system: HOP-92
PC-3 = system: PC-3
SF-539 = system: SF-539
SF-268 = system: SF-268
NCI-H460 = system: NCI-H460
SK-MEL-28 = system: SK-MEL-28
MDA-N = system: MDA-N
HCC 2998 = system: HCC 2998
HL-60 = system: HL-60
MDA-MB-435 = system: MDA-MB-435
RPMI-8226 = system: RPMI-8226
SW-620 = system: SW-620
CAKI-1 = system: CAKI-1
UACC-62 = system: UACC-62
SK-OV-3 = system: SK-OV-3
CCRF-CEM = system: CCRF-CEM
UO-31 = system: UO-31
TK-10 = system: TK-10
SK-MEL-5 = system: SK-MEL-5
HOP-62 = system: HOP-62
M14 = system: M14
A498 = system: A498
SNB-19 = system: SNB-19
ACHN = system: ACHN
OVCAR-4 = system: OVCAR-4
Malme-3M = system: Malme-3M
HT-29 = system: HT-29
NCI/ADR-RES = system: NCI/ADR-RES
786-0 = system: 786-0
OVCAR-5 = system: OVCAR-5
COLO 205 = system: COLO 205
DU-145 = system: DU-145
HCT-15 = system: HCT-15
NCI-H522 = system: NCI-H522
NCI-H23 = system: NCI-H23
OVCAR-3 = system: OVCAR-3
IGROV-1 = system: IGROV-1
MCF7 = system: MCF7
NCI-H226 = system: NCI-H226
EKVX = system: EKVX
SN12C = system: SN12C
RXF 393 = system: RXF 393
SR = system: SR
SK-MEL-2 = system: SK-MEL-2
Hs-578T = system: Hs-578T
MOLT-4 = system: MOLT-4
SF-295 = system: SF-295
K562 = system: K562
KM12 = system: KM12
HCT-116 = system: HCT-116
U-251 = system: U-251
T47D = system: T47D
MDA-MB-231 = system: MDA-MB-231
SNB-75 = system: SNB-75
UACC-257 = system: UACC-257
OVCAR-8 = system: OVCAR-8

SMILES: OC(c1ccccc1)c1c(-c2ccccc2)oc(-c2ccccc2)c1C(O)c1ccccc1 (centres undefined)
- GI50 (A549): 5.73 µM (inactive)
- GI50 (LOX IMVI): 11.1 µM (inactive)
- GI50 (HOP-92): 13.4 µM (inactive)
- GI50 (PC-3): 9.33 µM (inactive)
- GI50 (SF-539): 16.7 µM (inactive)
- GI50 (SF-268): 12 µM (inactive)
- GI50 (NCI-H460): 8.15 µM (inactive)
- GI50 (SK-MEL-28): 14.2 µM (inactive)
- GI50 (MDA-N): 9.1 µM (inactive)
- GI50 (HCC 2998): 16.8 µM (inactive)
- GI50 (HL-60): 3.26 µM (inactive)
- GI50 (MDA-MB-435): 8.04 µM (inactive)
- GI50 (RPMI-8226): 2.72 µM (inactive)
- GI50 (SW-620): 14.7 µM (inactive)
- GI50 (CAKI-1): 15.2 µM (inactive)
- GI50 (UACC-62): 11.2 µM (inactive)
- GI50 (SK-OV-3): 14.7 µM (inactive)
- GI50 (CCRF-CEM): 3.73 µM (inactive)
- GI50 (UO-31): 10.6 µM (inactive)
- GI50 (TK-10): 15.6 µM (inactive)
- GI50 (SK-MEL-5): 11.4 µM (inactive)
- GI50 (HOP-62): 14.4 µM (inactive)
- GI50 (M14): 10 µM (inactive)
- GI50 (A498): 16.8 µM (inactive)
- GI50 (SNB-19): 14.8 µM (inactive)
- GI50 (ACHN): 6.14 µM (inactive)
- GI50 (OVCAR-4): < 0.01 µM (active)
- GI50 (Malme-3M): 12.3 µM (inactive)
- GI50 (HT-29): 11.1 µM (inactive)
- GI50 (NCI/ADR-RES): 9.02 µM (inactive)
- GI50 (786-0): 9.06 µM (inactive)
- GI50 (OVCAR-5): 15.6 µM (inactive)
- GI50 (COLO 205): 5.87 µM (inactive)
- GI50 (DU-145): 13.7 µM (inactive)
- GI50 (HCT-15): 12.1 µM
- GI50 (NCI-H522): 3.15 µM (inactive)
- GI50 (NCI-H23): 9.06 µM (inactive)
- GI50 (OVCAR-3): 5.73 µM (inactive)
- GI50 (IGROV-1): 14 µM (inactive)
- GI50 (MCF7): 4.37 µM (inactive)
- GI50 (NCI-H226): 7.4 µM (inactive)
- GI50 (EKVX): 5.75 µM (inactive)
- GI50 (SN12C): 6.22 µM (inactive)
- GI50 (RXF 393): 6.5 µM (inactive)
- GI50 (SR): 9.95 µM (inactive)
- GI50 (SK-MEL-2): 14.2 µM (inactive)
- GI50 (Hs-578T): 13.5 µM (inactive)
- GI50 (MOLT-4): 5.06 µM (inactive)
- GI50 (SF-295): 15.1 µM (inactive)
- GI50 (K562): 3.58 µM (inactive)
- GI50 (KM12): 7.24 µM (inactive)
- GI50 (HCT-116): 5.65 µM (inactive)
- GI50 (U-251): 14 µM (inactive)
- GI50 (T47D): 6.28 µM (inactive)

SMILES: CCN(CC)CCCNc1nc(=O)[nH]c(C)c1C(=O)Nc1c2ccccc2nc2ccccc12
- GI50 (A549): 4.45 µM (inactive)
- GI50 (LOX IMVI): 8.43 µM (inactive)
- GI50 (HOP-92): 2.63 µM (inactive)
- GI50 (PC-3): 17.1 µM (inactive)
- GI50 (SF-539): 11.9 µM (inactive)
- GI50 (SK-MEL-28): 12.3 µM (inactive)
- GI50 (MDA-N): 4.86 µM (inactive)
- GI50 (HCC 2998): 8.79 µM (inactive)
- GI50 (HL-60): 5.01 µM (inactive)
- GI50 (MDA-MB-435): 5.21 µM (inactive)
- GI50 (MDA-MB-231): 12.9 µM (inactive)
- GI50 (RPMI-8226): 5.9 µM (inactive)
- GI50 (SW-620): 21.4 µM (inactive)
- GI50 (CAKI-1): 7.28 µM (inactive)
- GI50 (UACC-62): 6.32 µM (inactive)
- GI50 (SK-OV-3): 10.8 µM (inactive)
- GI50 (CCRF-CEM): 5.68 µM (inactive)
- GI50 (UO-31): 5.6 µM (inactive)
- GI50 (TK-10): 17.1 µM (inactive)
- GI50 (SNB-75): 10.1 µM (inactive)
- GI50 (SK-MEL-5): 10.8 µM (inactive)
- GI50 (HOP-62): 24.8 µM (inactive)
- GI50 (M14): 15.5 µM (inactive)
- GI50 (A498): 5.22 µM (inactive)
- GI50 (SNB-19): 8.71 µM (inactive)
- GI50 (ACHN): 10.2 µM (inactive)
- GI50 (OVCAR-4): 3.96 µM (inactive)
- GI50 (Malme-3M): 7.87 µM (inactive)
- GI50 (HT-29): 7.41 µM (inactive)
- GI50 (NCI/ADR-RES): 12.9 µM (inactive)
- GI50 (786-0): 11.3 µM (inactive)
- GI50 (OVCAR-5): 36.2 µM (inactive)
- GI50 (COLO 205): 8.79 µM (inactive)
- GI50 (DU-145): 12.8 µM (inactive)
- GI50 (HCT-15): 4.8 µM
- GI50 (NCI-H522): 3.63 µM (inactive)
- GI50 (NCI-H23): 7.53 µM (inactive)
- GI50 (OVCAR-3): 6.14 µM (inactive)
- GI50 (IGROV-1): 6.85 µM (inactive)
- GI50 (MCF7): 7.78 µM (inactive)
- GI50 (NCI-H226): 14.9 µM (inactive)
- GI50 (EKVX): 12.2 µM (inactive)
- GI50 (UACC-257): 15.6 µM (inactive)
- GI50 (SN12C): 15.4 µM (inactive)
- GI50 (RXF 393): 27 µM (inactive)
- GI50 (SK-MEL-2): 20.8 µM (inactive)
- GI50 (OVCAR-8): 21.7 µM (inactive)
- GI50 (MOLT-4): 4.28 µM (inactive)
- GI50 (SF-295): 5.97 µM (inactive)
- GI50 (K562): 4.75 µM (inactive)
- GI50 (KM12): 3.56 µM (inactive)
- GI50 (HCT-116): 5.41 µM (inactive)
- GI50 (U-251): 12.6 µM (inactive)
- GI50 (T47D): 10.7 µM (inactive)

SMILES: CN(CCCNC(=O)c1cn(C)c2c1ccc1ccccc12)CCCNC(=O)c1cn(C)c2c1ccc1ccccc12
- GI50 (A549): 1.35 µM (inactive)
- GI50 (LOX IMVI): 1.82 µM (inactive)
- GI50 (HOP-92): 1.42 µM (inactive)
- GI50 (PC-3): 1.51 µM (inactive)
- GI50 (SF-268): 1.49 µM (inactive)
- GI50 (NCI-H460): 1.51 µM (inactive)
- GI50 (SK-MEL-28): 1.69 µM (inactive)
- GI50 (MDA-N): 1.45 µM (inactive)
- GI50 (HCC 2998): 1.41 µM (inactive)
- GI50 (MDA-MB-435): 2.06 µM (inactive)
- GI50 (SW-620): 2.59 µM (inactive)
- GI50 (CAKI-1): 1.53 µM (inactive)
- GI50 (UACC-62): 2.06 µM (inactive)
- GI50 (CCRF-CEM): 2.26 µM (inactive)
- GI50 (UO-31): 1.44 µM (inactive)
- GI50 (SK-MEL-5): 1.65 µM (inactive)
- GI50 (HOP-62): 1.61 µM (inactive)
- GI50 (M14): 1.58 µM (inactive)
- GI50 (A498): 14.7 µM (inactive)
- GI50 (SNB-19): 2.33 µM (inactive)
- GI50 (ACHN): 1.71 µM (inactive)
- GI50 (OVCAR-4): 9.35 µM (inactive)
- GI50 (HT-29): 1.55 µM (inactive)
- GI50 (NCI/ADR-RES): 1.77 µM (inactive)
- GI50 (786-0): 1.87 µM (inactive)
- GI50 (COLO 205): 1.75 µM (inactive)
- GI50 (DU-145): 1.55 µM (inactive)
- GI50 (HCT-15): 1.73 µM
- GI50 (NCI-H23): 1.51 µM (inactive)
- GI50 (OVCAR-3): 1.51 µM (inactive)
- GI50 (IGROV-1): 1.11 µM (active)
- GI50 (NCI-H226): 1.66 µM (inactive)
- GI50 (EKVX): 1.7 µM (inactive)
- GI50 (UACC-257): 1.58 µM (inactive)
- GI50 (SN12C): 1.41 µM (inactive)
- GI50 (RXF 393): 1.65 µM (inactive)
- GI50 (Hs-578T): 1.44 µM (inactive)
- GI50 (SF-295): 4.6 µM (inactive)
- GI50 (KM12): 1.61 µM (inactive)
- GI50 (HCT-116): 1.49 µM (inactive)
- GI50 (U-251): 2.4 µM (inactive)
